Patent US10906880B2, “Kind of isothiazole oxime ether-containing strobilurin derivatives and its preparation methods and application” (priority 2016, dated 2021)
Like-named read-outs stand apart in the source and are kept apart here.

Columns and labels:
TMV [1] = test: Anti-TMV activity on tobacco, protection mode; format: in vivo, tobacco mosaic virus; settings: 100 μg/mL; for inhibition at 100 µg/mL: Tobacco mosaic virus, read-out: Anti-TMV activity inhibition, Protection effect
TMV [2] = test: Anti-TMV activity on tobacco, induction mode (systemic acquired resistance); format: in vivo, tobacco mosaic virus; settings: 100 μg/mL; for inhibition at 100 µg/mL: Tobacco mosaic virus, read-out: Anti-TMV activity inhibition, Induction effect
Alternaria solani = test: Fungicide activity, mycelial growth inhibition on PDA plate; format: cell-based; settings: Alternaria solani, read-out: Fungicidal activity inhibition, AS
Cercospora arachidicola = test: as above; format: cell-based; settings: Mycosphaerella arachidis, read-out: Fungicidal activity inhibition, CA
Physalospora piricola = test: as above; format: cell-based; settings: read-out: Fungicidal activity inhibition, PP
Botrytis cinerea = test: as above; format: cell-based; settings: Botrytis cinerea, read-out: Fungicidal activity inhibition, BC
Sclerotinia sclerotiorum = test: as above; format: cell-based; settings: Sclerotinia sclerotiorum, read-out: Fungicidal activity inhibition, SS
Rhizoctonia cerealis = test: as above; format: cell-based; settings: Ceratobasidium cereale, read-out: Fungicidal activity inhibition, RC
Pellicularia sasakii = test: as above; format: cell-based; settings: 50 μg/mL, P. sasakii; read-out: Fungicidal activity inhibition, PS
[3] = system: Phytophthora infestans (Mont) de Bary; test: microbe, parasite or virus in culture; format: cell-based; settings: for inhibition at 50 µg/mL: Phytophthora infestans, read-out: Fungicidal activity inhibition, PI, 50 μg/mL, P. infestans (Mont.) de Bary; for Fungicidal activity inhibition, PI: 50 μg/mL, P. infestans (Mont.) de Bary
TMV [4] = test: Anti-TMV activity on tobacco, curative mode; format: in vivo, tobacco mosaic virus; settings: Tobacco mosaic virus, 100 μg/mL, tobacco; read-out: Anti-TMV activity inhibition, Curative effect
TMV [5] = test: Anti-TMV activity on tobacco, inactivation mode; format: in vivo, tobacco mosaic virus; settings: Tobacco mosaic virus, 100 μg/mL, read-out: Anti-TMV activity inhibition, Inactivation effect

| Structure (SMILES) | inhibition at 50 µg/mL (Alternaria solani; 50 μg/mL, A. solani) | inhibition at 50 µg/mL (Alternaria solani) | inhibition at 50 µg/mL (Cercospora arachidicola; 50 μg/mL, C. arachidicola) | inhibition at 50 µg/mL (Physalospora piricola; 50 μg/mL, P. piricola) | inhibition at 50 µg/mL (Botrytis cinerea; 50 μg/mL, B. cinerea) | inhibition at 50 µg/mL (Botrytis cinerea) | inhibition at 50 µg/mL (Sclerotinia sclerotiorum; 50 μg/mL, S. sclerotiorum) | inhibition at 50 µg/mL (Sclerotinia sclerotiorum) | inhibition at 50 µg/mL (Rhizoctonia cerealis; 50 μg/mL, R. cerealis) | inhibition at 50 µg/mL (Rhizoctonia cerealis) | inhibition at 50 µg/mL (Pellicularia sasakii) | inhibition at 100 µg/mL (TMV [4]) | inhibition at 100 µg/mL (TMV [1]) | melting point | inhibition at 50 µg/mL (Cercospora arachidicola) | inhibition at 100 µg/mL (TMV [5]) | further results |
| --- | --- | --- | --- | --- | --- | --- | --- | --- | --- | --- | --- | --- | --- | --- | --- | --- | --- |
| CSC(=O)c1cccc2nnsc12 [BTH, reference compound] |  |  |  |  |  |  |  |  |  |  |  |  |  |  |  |  | Anti-TMV activity inhibition, Protection effect (TMV [1]): 78.10 ± 0.54%; Anti-TMV activity inhibition, Induction effect (TMV [2]): 78.00 ± 1.34% |
| CO/C=C(/C(=O)OC)c1ccccc1CO/N=C(\C)CC(=O)c1snc(Cl)c1Cl [CL04-04-B] | 50% | > 30% | 75% | 60.9% | 58.3% | > 45% | 76.7% | > 40% | 92.6% | > 50% | 64.7% | 19.1 ± 2% | > 40% | 103 to 105 °C |  |  | inhibition at 50 µg/mL [3]: > 40% |
| CO/C=C(/C(=O)OC)c1ccccc1CO/N=C(C)/C=C/c1snc(Cl)c1Cl [CL04-06] | 57.1% | > 30% | 50% |  | 100% |  | 100% |  | 100% |  | 70.6% | 22.4 ± 6.85% | > 40% | 101 to 103 °C | > 30% | 22.2 ± 5.9% | inhibition at 50 µg/mL (Physalospora piricola): 73.9% |
| CO/N=C(/C(=O)NCC(F)F)c1ccccc1CO/N=C(\C)c1snc(Cl)c1Cl [CL04-22A] | 37.1% | > 30% | 42.9% | 40.4% | 53.9% | > 45% | 84% | > 40% | 87.7% | > 50% | 20% | 23.4 ± 5.58% | 30.7 ± 2.06% | 78 to 80 °C | > 30% | > 30% |  |
| CO/N=C(/C(=O)NC1CC1)c1ccccc1CO/N=C(\C)c1snc(Cl)c1Cl [CL04-22C] | 27.9% |  | 44% | 61.4% | 47.4% | > 45% | 80% | > 40% | 61% | > 50% | 56.8% | 4.62 ± 0.55% | 23.6 ± 0.57% | 115 to 117 °C | > 30% | 4.44 ± 0.85% | Fungicidal activity inhibition, PI [3]: 100% |
| C#CCNC(=O)/C(=N/OC)c1ccccc1CO/N=C(\N)c1snc(Cl)c1Cl [CL04-25A] | 8.2% |  | 20% | 19.3% | 42.1% |  | 46.7% | > 40% | 65.8% | > 50% | 46% |  | > 40% | 106 to 108 °C |  | 0% | Fungicidal activity inhibition, PI [3]: 100% |
| CO/N=C(/C(=O)N[C@H](C)CSC)c1ccccc1CO/N=C(C)/C=C/c1snc(Cl)c1Cl [CL04-32F] | 12.7% |  | 12.5% | 58% | 42.9% |  | 52.9% | > 40% | 62% | > 50% | 21.2% |  | > 40% |  |  | 7.71 ± 1.42% | inhibition at 50 µg/mL [3]: 20% |
| NC(=O)c1ncn([C@@H]2O[C@H](CO)[C@@H](O)[C@H]2O)n1 [Ribavirin, reference compound] |  |  |  |  |  |  |  |  |  |  |  |  |  |  |  | 78 ± 1% |  |
| Nc1ccc(S(=O)(=O)Nc2nccs2)cc1 [SZG-7, reference compound] |  |  |  |  |  |  |  |  |  |  |  |  |  |  |  |  | inhibition at 100 µg/mL (TMV [2]): 79 ± 2.27% |
| Cc1ccc(NC(=O)c2snnc2C)cc1Cl [TDL, Tiadinil, reference compound] |  |  |  |  |  |  |  |  |  |  |  |  |  |  |  |  | inhibition at 100 µg/mL (TMV [2]): 65 ± 2% |
